Assay results: patent publication US20070281046A1, “Method for removing organic contaminants from Chinese herb medicines” (Committee on Chinese Medicine and Pharmacy, Department of …, priority 2006, published 2007)
Marks after values point to notes of the source that are not given here.

Test: Degradation of nine organochlorine pesticides by gamma irradiation in samples of P. quinquefolium (GC analysis)
Assay type: physicochemical
Details: for remaining concentration of organochlorine pesticides in samples: P. quinquefolium samples, mean of three; for proportion of pesticide degraded: gamma irradiation of P. quinquefolium samples, dose not stated in the sentence (matches 25 kGy of Table 1)
Excerpt: The nine organochlorine pesticides that included Aldrin, Lindane, Heptachlor, Endosulfan-1, Endosulfan-2, o,p′-DDD), p,p′-DDD, p,p′-DDE, and p,p′-DDT were simultaneously prepared in a n-hexane solution. Subsequently, the n-hexane solution that contained the aforesaid organochlorine pesticides was evenly sprayed into samples of P. quinquefolium; the concentration of each of the nine organochlorine pesticides contained in the samples was approximately 0.5 ppm. The samples were cut into pieces with scissors, and then divided into separate packs that weighed 10 g, respectively; the packs were subjected to gamma irradiation of different dosages ranging from 0, 5, 10, 15, 20, and 25 kGy, and followed by the analysis of concentration of the aforesaid organochlorine pesticides. […] Solution was extracted from the samples by using 70% aqueous acetone, and then the extracted solution was subjected to filtration, a decrease in pressure, and condensation in order to remove acetone, followed by the addition of hydrochloric acid and n-hexane to bring the extracted solution to 100 ml, so that the organochlorine pesticides were distributed to the organic layer. Consequently, magnesium silicate was added into the resulted solution in order to depigment and purify it, and once the solution has undergone a decrease in pressure and condensation again for drying, it was brought to 5 ml by adding n-hexane solution to prepare it for gas chromatography (GC) analysis. After undergoing centrifugation, 2 μl of the resulted solution was taken for GC analysis to find out the respective concentration of each of the aforesaid organochlorine pesticides remaining in the samples after receiving various dosages of gamma irradiation.

[1] = 0 kGy gamma irradiation (control group)

ClC1=C(Cl)C2(Cl)C3C4C=CC(C4)C3C1(Cl)C2(Cl)Cl (centres unmarked) [Aldrin]
remaining concentration of organochlorine pesticides in samples [1]: 0.532^a) ppm | remaining concentration of organochlorine pesticides in samples (5 kGy gamma irradiation): 0.376 ppm | remaining concentration of organochlorine pesticides in samples (10 kGy gamma irradiation): 0.279 ppm | remaining concentration of organochlorine pesticides in samples (15 kGy gamma irradiation): 0.218 ppm | remaining concentration of organochlorine pesticides in samples (20 kGy gamma irradiation): 0.168 ppm | remaining concentration of organochlorine pesticides in samples (25 kGy gamma irradiation): 0.123 ppm

O=S1OC[C@@H]2[C@H](CO1)[C@@]1(Cl)C(Cl)=C(Cl)[C@]2(Cl)C1(Cl)Cl (some centres unmarked) [Endosulfan-1]
remaining concentration of organochlorine pesticides in samples [1]: 0.519 ppm | remaining concentration of organochlorine pesticides in samples (5 kGy gamma irradiation): 0.392 ppm | remaining concentration of organochlorine pesticides in samples (10 kGy gamma irradiation): 0.311 ppm | remaining concentration of organochlorine pesticides in samples (15 kGy gamma irradiation): 0.251 ppm | remaining concentration of organochlorine pesticides in samples (20 kGy gamma irradiation): 0.192 ppm | remaining concentration of organochlorine pesticides in samples (25 kGy gamma irradiation): 0.140 ppm

O=S1OC[C@@H]2[C@H](CO1)[C@]1(Cl)C(Cl)=C(Cl)[C@]2(Cl)C1(Cl)Cl (some centres unmarked) [Endosulfan-2]
remaining concentration of organochlorine pesticides in samples [1]: 0.515 ppm | remaining concentration of organochlorine pesticides in samples (5 kGy gamma irradiation): 0.359 ppm | remaining concentration of organochlorine pesticides in samples (10 kGy gamma irradiation): 0.263 ppm | remaining concentration of organochlorine pesticides in samples (15 kGy gamma irradiation): 0.198 ppm | remaining concentration of organochlorine pesticides in samples (20 kGy gamma irradiation): 0.144 ppm | remaining concentration of organochlorine pesticides in samples (25 kGy gamma irradiation): 0.093 ppm

ClC1=C(Cl)C2(Cl)C3C(Cl)C=CC3C1(Cl)C2(Cl)Cl (centres unmarked) [Heptachlor]
remaining concentration of organochlorine pesticides in samples [1]: 0.532 ppm | remaining concentration of organochlorine pesticides in samples (5 kGy gamma irradiation): 0.421 ppm | remaining concentration of organochlorine pesticides in samples (10 kGy gamma irradiation): 0.319 ppm | remaining concentration of organochlorine pesticides in samples (15 kGy gamma irradiation): 0.254 ppm | remaining concentration of organochlorine pesticides in samples (20 kGy gamma irradiation): 0.195 ppm | remaining concentration of organochlorine pesticides in samples (25 kGy gamma irradiation): 0.142 ppm

Cl[C@H]1[C@H](Cl)[C@@H](Cl)[C@@H](Cl)[C@H](Cl)[C@H]1Cl [Lindane]
remaining concentration of organochlorine pesticides in samples [1]: 0.549 ppm | remaining concentration of organochlorine pesticides in samples (5 kGy gamma irradiation): 0.383 ppm | remaining concentration of organochlorine pesticides in samples (10 kGy gamma irradiation): 0.278 ppm | remaining concentration of organochlorine pesticides in samples (15 kGy gamma irradiation): 0.206 ppm | remaining concentration of organochlorine pesticides in samples (20 kGy gamma irradiation): 0.147 ppm | remaining concentration of organochlorine pesticides in samples (25 kGy gamma irradiation): 0.089 ppm | proportion of pesticide degraded: 84%

Clc1ccc(C(c2ccccc2Cl)C(Cl)Cl)cc1 (centres unmarked) [o,p′-DDD]
remaining concentration of organochlorine pesticides in samples [1]: 0.476 ppm | remaining concentration of organochlorine pesticides in samples (5 kGy gamma irradiation): 0.337 ppm | remaining concentration of organochlorine pesticides in samples (10 kGy gamma irradiation): 0.250 ppm | remaining concentration of organochlorine pesticides in samples (15 kGy gamma irradiation): 0.196 ppm | remaining concentration of organochlorine pesticides in samples (20 kGy gamma irradiation): 0.155 ppm | remaining concentration of organochlorine pesticides in samples (25 kGy gamma irradiation): 0.119 ppm

Clc1ccc(C(c2ccc(Cl)cc2)C(Cl)Cl)cc1 [p,p′-DDD]
remaining concentration of organochlorine pesticides in samples [1]: 0.502 ppm | remaining concentration of organochlorine pesticides in samples (5 kGy gamma irradiation): 0.370 ppm | remaining concentration of organochlorine pesticides in samples (10 kGy gamma irradiation): 0.282 ppm | remaining concentration of organochlorine pesticides in samples (15 kGy gamma irradiation): 0.227 ppm | remaining concentration of organochlorine pesticides in samples (20 kGy gamma irradiation): 0.179 ppm | remaining concentration of organochlorine pesticides in samples (25 kGy gamma irradiation): 0.147 ppm

ClC(Cl)=C(c1ccc(Cl)cc1)c1ccc(Cl)cc1 [p,p′-DDE]
remaining concentration of organochlorine pesticides in samples [1]: 0.544 ppm | remaining concentration of organochlorine pesticides in samples (5 kGy gamma irradiation): 0.404 ppm | remaining concentration of organochlorine pesticides in samples (10 kGy gamma irradiation): 0.313 ppm | remaining concentration of organochlorine pesticides in samples (15 kGy gamma irradiation): 0.249 ppm | remaining concentration of organochlorine pesticides in samples (20 kGy gamma irradiation): 0.195 ppm | remaining concentration of organochlorine pesticides in samples (25 kGy gamma irradiation): 0.145 ppm

Clc1ccc(C(c2ccc(Cl)cc2)C(Cl)(Cl)Cl)cc1 [p,p′-DDT]
remaining concentration of organochlorine pesticides in samples [1]: 0.520 ppm | remaining concentration of organochlorine pesticides in samples (5 kGy gamma irradiation): 0.344 ppm | remaining concentration of organochlorine pesticides in samples (10 kGy gamma irradiation): 0.242 ppm | remaining concentration of organochlorine pesticides in samples (15 kGy gamma irradiation): 0.178 ppm | remaining concentration of organochlorine pesticides in samples (20 kGy gamma irradiation): 0.127 ppm | remaining concentration of organochlorine pesticides in samples (25 kGy gamma irradiation): 0.082 ppm | proportion of pesticide degraded: 84%
